Values quoted from earlier work, collected in publication PMC9653995, “New Positive TRPC6 Modulator Penetrates Blood–Brain Barrier, Eliminates Synaptic Deficiency and Restores Memory Deficit in 5xFAD Mice” (International Journal of Molecular Sciences, 2022).

System: TRPC3
Conditions: cited from earlier work

For `O=C(c1cc2c(s1)CCCCC2)N1CCC(n2c(=O)[nH]c3ccccc32)CC1` [GSK1702934A, reference compound], the “activation of TRPC3” value is given as “activate TRPC3”.
